This is an account of results in publication PMC9928118, “Funneling modulatory peptide design with generative models: Discovery and characterization of disruptors of calcineurin protein-protein interactions” (PLOS Computational Biology, 2023).

B1: rbmTRESK_2 (peptide)
peptide: Ac-ADEAIPEITITSAELP-NH2
notes: cRBM-designed (low temperature sampling); source: synthetic peptide (peptide2 Inc)
B2: rbmAKAP79 (peptide)
peptide: Ac-AAGAGVGIVITVTEAE-NH2
notes: as for B1
B3: rbmAKAP79_2 (peptide)
peptide: Ac-ADGAGVGIVITVTEAE-NH2
notes: as for B1

One test deals with T1, catalytic domain of Calcineurin (Cn A), residues 2-347 with Y341S, L343A, M347D (UniProt Q08209 2-347, Y341S | L343A | M347D).
T1 construct: Calcineurin catalytic domain (calcineurin A), residues 2-347, with substitutions Y341S, L343A, M347D; Expressed as a cleavable GST fusion; source: E. coli BL21, purified (Glutathione Sepharose 4 Fast Flow, size exclusion on Superdex 75)
T1 sequence (Q08209 2-347 Y341S/L343A/M347D): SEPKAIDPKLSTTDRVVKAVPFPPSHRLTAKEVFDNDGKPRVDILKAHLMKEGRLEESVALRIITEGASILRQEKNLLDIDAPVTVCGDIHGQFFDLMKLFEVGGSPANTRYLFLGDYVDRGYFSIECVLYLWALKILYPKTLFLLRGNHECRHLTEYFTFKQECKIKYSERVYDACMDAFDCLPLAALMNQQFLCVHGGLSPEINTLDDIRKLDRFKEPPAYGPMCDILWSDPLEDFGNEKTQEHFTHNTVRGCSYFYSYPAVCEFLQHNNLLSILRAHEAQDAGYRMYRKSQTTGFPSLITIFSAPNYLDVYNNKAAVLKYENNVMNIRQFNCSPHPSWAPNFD
Description: fluorescence polarisation; competition: variable concentrations of non-labeled peptide added to 100 nM FITC-labeled PVIVIT peptide and 4 uM Cn A, 96-well plate, triplicate; fitted to a single site inhibition model. The settings on record: both partners purified.
Regarding B1, the IC50 came out at 60 µM.

On to B2, for which the IC50 stood at 57 µM.

B3: the IC50 was found to be 69 µM.

For the next test, the target named is T2, Calcineurin (Cn) catalytic domain (Cn A), PxIxIT binding site (Homo sapiens, UniProt Q08209, L343A/M347D/Y341S).
T2 construct: the gene encoding to residues 2–347 with substitutions Y341S, L343A, and M347D was expressed as a cleavable GST fusion protein; GST; made in house; host or cells: E. coli BL21
T2 sequence (Q08209 2-347 Y341S/L343A/M347D): as above
The test can be described thus: Fluorescence polarization (FP) competition assay against FITC-labeled PVIVIT peptide. To be noted: 100nM FITC-labeled PVIVIT peptide, 4uM Cn A, result in words. As to the method: Polarization levels were read and normalized values were fitted to a single site model.
Selected peptides were synthesized and their ability to specifically bind the Cn PxIxIT binding site was evaluated by FP competition assay (Methods).
The catalytic domain of Cn was expressed as described in [84, 85]. […] Growing in LB, after reaching to OD(600nm) = 0.8, protein expression was induced by the addition of 1 mM IPTG at 25°C. The cells were harvested after 16h and resuspended in PBS-based lysis buffer suitable for downstream purification onto GST column (Glutathione Sepharose 4 Fast Flow) of the soluble fraction after disrupted by sonication and remove of all non-soluble debris by centrifuge. Elution from the GST column was further purified by size exclusion chromatography with the superdex75 column.
Fluorescence measurements were performed on samples arrayed in a 96-well plate using Biotek HybridH1 reader equipped with a polarized optic system. All measurements were done in triplicate.
Consider Ac-AAGAGVGIVITVTEAE-NH2 [rbmAKAP79], for which the “Ability to compete with PVIVIT for Cn binding” value is on record as “successfully competed with PVIVIT binding”.

Ac-ADGAGVGIVITVTEAE-NH2 [rbmAKAP79_2]: the “Ability to compete with PVIVIT for Cn binding” value is on record as “successfully competed with PVIVIT binding”.

Staying with this test, now noted: read-out: IC50 (competition with FITC-labeled PVIVIT peptide for Cn binding), 100nM FITC-labeled PVIVIT peptide, 4uM Cn A, variable peptide concentrations, 96-well plate, triplicate, single site inhibition model fit, NB = No binding.
In the case of Ac-TFHTNPQYRIKLEEPD-NH2 [rbmCAPN11_2], the IC50 is over 257 µM.

Ac-TTAMNPQFFVQIPRTA-NH2 [CAPN11]: the IC50 was over 257 µM.

With Ac-RTYINPFMLFEDMGSR-NH2 [rbmSFB3], the IC50 was over 257 µM.

As for Ac-TFWTNPQYRIKLEEAD-NH2 [rbmCAPN11_3], the IC50 was over 257 µM.
